Source: patent publication US10966426B2, “Herbicidal compositions comprising phenylpyrimidines” (BASF SE, priority 2016, dated 2021)
Where two headings read alike, the source gives them in different places.

Legend:
Format in all cases: in vivo
Poa annua = assay: greenhouse post-emergence treatment, POAAN; settings: Poa annua, 480 h, 20 DAT, POAAN
How it was run: (§1)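 Plants in loamy sand (~3.0% humus) were sprayed post-emergence at 3–15 cm height with actives in a water spray liquor made from 10% by weight emulsion concentrates. Plants were kept at 10-25° C. or 20-35° C. by species and rated over 2–4 weeks on a 0–100 scale (100 = complete destruction). Colby's E = X+Y−(X·Y/100) gave the expected additive effect.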

Alopecurus myosuroides = assay: greenhouse post-emergence treatment, ALOMY; settings: Alopecurus myosuroides, 480 h, 20 DAT, ALOMY
How it was run: (§2)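 Scoring used a 0 to 100 scale, with 100 denoting no emergence or full destruction of at least the above-ground parts, recorded within a 2 to 4 week test period. Test plants grew in loamy sand containing about 3.0% humus at 10-25° C. or 20-35° C., after direct sowing or transplanting, and received water-based treatments post-emergence.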

Papaver rhoeas = assay: greenhouse post-emergence treatment, PAPRH; settings: Papaver rhoeas, 480 h, 20 DAT, PAPRH
How it was run: (§3)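 Seeds sown per species in pots of loamy sand; seedlings either grown in place or transplanted days before treatment. Post-emergence spray of water-based liquor at 3–15 cm height. Injury rated 0–100 over 2 to 4 weeks.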

Matricaria chamomilla = assay: greenhouse post-emergence treatment, MATCH; settings: Matricaria chamomilla, 480 h, 70 gai/ha (SL 480 g/l), 20 DAT, MATCH, Table X7, read-out: % activity, solo application
How it was run: as §3

Helianthus annuus = assay: greenhouse post-emergence treatment, HELAN; settings: Helianthus annuus, 480 h, 20 DAT, HELAN, dicamba SL 480 g/l solo 70 gai/ha
Procedure: (§4) The culture containers used were plastic pots containing loamy sand with approximately 3.0% of humus as substrate. The seeds of the test plants were sown separately for each species.
(§5) For the post-emergence treatment, the test plants were grown to a plant height of from 3 to 15 cm, depending on the plant habit, and only then treated with the active compounds which had been suspended or emulsified in water. To this end, the test plants were either sown directly, and grown in the same containers, or they were first grown separately as seedlings and transplanted into the test containers a few days prior to treatment.
(§6) Depending on the species, the plants were kept at 10-25° C. and 20-35° C., respectively.
(§7) The test period extended over 2 to 4 weeks. During this time, the plants were tended and their response to the individual treatments was evaluated.
(§8) Evaluation was carried out using a scale from 0 to 100. 100 means no emergence of the plants, or complete destruction of at least the above-ground parts, and 0 means no damage or normal course of growth. A good herbicidal activity is given at values of at least 70, and very good herbicidal activity is given at values of at least 85.
(§9) The respective stated components A and B, and if appropriate, C were formulated as a 10% by weight strength emulsion concentrate and, with addition of the amount of solvent system, introduced into the spray liquor used for applying the active compound. In the examples, the solvent used was water.
(§10) In the examples below, using the method of S. R. Colby (1967) “Calculating synergistic and antagonistic responses of herbicide combinations”, Weeds 15, p. 22ff., the value E, which is expected if the activity of the individual active compounds is only additive, was calculated. E=X+Y−(X·Y/100) where X=effect in percent using herbicide A at an application rate a; • Y=effect in percent using herbicide B at application rate b; • E=expected effect (in %) of herbicide A+herbicide B at application rates a+b.

Lolium multiflorum = assay: greenhouse post-emergence treatment, LOLMU; settings: Lolium multiflorum, 480 h, 20 DAT, LOLMU
How it was run: as §2

Setaria viridis = assay: greenhouse post-emergence treatment, SETVI; settings: Setaria viridis, 480 h, 35 gai/ha (SL 480 g/l), 20 DAT, SETVI, Table X7, read-out: % activity, solo application
How it was run: as §2

Galium aparine = assay: greenhouse post-emergence treatment, GALAP; settings: Galium aparine, 480 h, 20 DAT, GALAP, dicamba SL 480 g/l solo 70 gai/ha
How it was run: as §3

Stellaria media = assay: greenhouse post-emergence treatment, STEME; settings: Stellaria media, 480 h, 20 DAT, STEME, dicamba SL 480 g/l solo 35 gai/ha
How it was run: as §1

Echinocloa crus-galli = assay: greenhouse post-emergence treatment, ECHCG; settings: Echinochloa crus-galli, 480 h, 20 DAT, ECHCG, dicamba SL 480 g/l solo 35 gai/ha
Procedure: as §4, §5, §6, §7, §8, §9, §10

Digitaria sanguinalis = assay: greenhouse post-emergence treatment, DIGSA; settings: Digitaria sanguinalis, 480 h, 20 DAT, DIGSA
How it was run: as §2

Bromus sterilis = assay: greenhouse post-emergence treatment, BROST; settings: Bromus sterilis, 480 h, 20 DAT, BROST
How it was run: as §2

Brachiaria decumbens = assay: greenhouse post-emergence treatment, BRADC; settings: Urochloa decumbens, 480 h, 20 DAT, BRADC
How it was run: as §1

[1] = dicamba SL 480 g/l solo 17.5 gai/ha
[2] = dicamba SL 480 g/l solo 35 gai/ha
[3] = dicamba SL 480 g/l solo 70 gai/ha
[4] = dicamba SL 480 g/l solo 140 gai/ha
[5] = 35 gai/ha (SL 480 g/l), Table X7, read-out: % activity, solo application

## COc1c(Cl)ccc(Cl)c1C(=O)O [Dicamba, dicamba]
Poa annua; [1]
  inhibition at 17.5 g/ha: 0%
Poa annua; [2]
  inhibition at 35 g/ha: 0%
Poa annua; [3]
  inhibition at 70 g/ha: 0%
Poa annua; [4]
  inhibition at 140 g/ha: 0%
Alopecurus myosuroides; dicamba SL 480 g/l solo 140 gai/ha, read-out: % activity
  inhibition at 140 g/ha: 0%
Alopecurus myosuroides; [5]
  inhibition at 35 g/ha: 0%
Alopecurus myosuroides; 70 gai/ha (SL 480 g/l), Table X7, read-out: % activity, solo application
  inhibition at 70 g/ha: 0%
Alopecurus myosuroides; 140 gai/ha (SL 480 g/l), Table X7, read-out: % activity, solo application
  inhibition at 140 g/ha: 0%
Alopecurus myosuroides; 280 gai/ha (SL 480 g/l), Table X7, read-out: % activity, solo application
  inhibition at 280 g/ha: 5%
Papaver rhoeas; [1]
  inhibition at 17.5 g/ha: 20%
Papaver rhoeas; [2]
  inhibition at 35 g/ha: 30%
Matricaria chamomilla
  inhibition at 70 g/ha: 0%
Helianthus annuus
  inhibition at 70 g/ha: 85%
Lolium multiflorum; [1]
  inhibition at 17.5 g/ha: 0%
Lolium multiflorum; [2]
  inhibition at 35 g/ha: 0%
Setaria viridis
  inhibition at 35 g/ha: 0%
Galium aparine
  inhibition at 70 g/ha: 85%
Stellaria media
  inhibition at 35 g/ha: 80%
Echinocloa crus-galli
  inhibition at 35 g/ha: 0%
Digitaria sanguinalis; [1]
  inhibition at 17.5 g/ha: 0%
Digitaria sanguinalis; [2]
  inhibition at 35 g/ha: 0%
Digitaria sanguinalis; [3]
  inhibition at 70 g/ha: 0%
Digitaria sanguinalis; [4]
  inhibition at 140 g/ha: 30%
Bromus sterilis; [1]
  inhibition at 17.5 g/ha: 0%
Bromus sterilis; [2]
  inhibition at 35 g/ha: 0%
Bromus sterilis; [3]
  inhibition at 70 g/ha: 0%
Bromus sterilis; [4]
  inhibition at 140 g/ha: 0%
Brachiaria decumbens; [1]
  inhibition at 17.5 g/ha: 0%
Brachiaria decumbens; dicamba SL 480 g/l solo 35 gai/ha, read-out: % activity
  inhibition at 35 g/ha: 0%
Brachiaria decumbens; [4]
  inhibition at 140 g/ha: 30%
Brachiaria decumbens; [5]
  inhibition at 35 g/ha: 0%
